In the assay the target is T1, mouse FXR and human RXR (Mus musculus, UniProt Q60641).
T1 construct: expressed in transfected cells; host or cells: CV-1 cells
T1 sequence (Q60641 1-488): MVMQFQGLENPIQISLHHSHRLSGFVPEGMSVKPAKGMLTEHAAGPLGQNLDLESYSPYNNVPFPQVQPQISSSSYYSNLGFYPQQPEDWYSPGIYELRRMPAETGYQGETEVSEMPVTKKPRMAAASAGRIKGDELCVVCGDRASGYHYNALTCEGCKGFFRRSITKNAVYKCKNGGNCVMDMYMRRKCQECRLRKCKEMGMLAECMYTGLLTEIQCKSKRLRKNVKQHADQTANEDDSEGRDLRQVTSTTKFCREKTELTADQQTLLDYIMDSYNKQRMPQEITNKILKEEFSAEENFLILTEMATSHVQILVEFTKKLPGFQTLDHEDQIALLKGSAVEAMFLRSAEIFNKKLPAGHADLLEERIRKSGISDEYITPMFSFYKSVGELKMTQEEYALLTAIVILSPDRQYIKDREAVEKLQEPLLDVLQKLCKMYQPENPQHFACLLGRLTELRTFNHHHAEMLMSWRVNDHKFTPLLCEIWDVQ
T1 sequence (P19793 1-462 partner): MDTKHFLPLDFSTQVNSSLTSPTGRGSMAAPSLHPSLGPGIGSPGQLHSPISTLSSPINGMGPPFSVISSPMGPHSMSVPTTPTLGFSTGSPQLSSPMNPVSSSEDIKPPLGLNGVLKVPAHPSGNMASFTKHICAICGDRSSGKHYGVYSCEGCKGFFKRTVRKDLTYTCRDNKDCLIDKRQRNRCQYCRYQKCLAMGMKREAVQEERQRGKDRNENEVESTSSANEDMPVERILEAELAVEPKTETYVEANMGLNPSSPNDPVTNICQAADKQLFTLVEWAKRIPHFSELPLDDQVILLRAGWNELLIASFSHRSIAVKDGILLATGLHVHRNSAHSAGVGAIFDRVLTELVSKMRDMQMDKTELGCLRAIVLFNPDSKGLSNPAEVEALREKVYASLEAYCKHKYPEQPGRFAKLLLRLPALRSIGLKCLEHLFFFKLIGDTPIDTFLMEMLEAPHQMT
Description: CV-1 transient transfection reporter gene assay, TK minimal promoter with ECRE or ER-8 FXRE. In kind it is cell-based. As to conditions: CV-1 cells; for concentration at which maximal activity is achieved: ECRE and ER-8 reporters; for activation of ECRE FXRE reporter: six copies of ECRE, TK minimal promoter; for activation of ER-8 FXRE reporter: two copies of ER-8, TK minimal promoter. The protocol:
The ability of these compounds to activate the receptor in a number of different cell-based reporter gene assays was then determined. […] CV-1 cells were transiently transfected with an expression plasmid for mouse FXR and human RXR with a thymidine kinase (TK) minimal promoter reporter vector containing either no copies or six copies of the ecdysone response element (ECRE), a well-characterized FXR response element (FXRE). In addition, two copies of the recently identified FXRE everted repeat separated by 8 nucleotides (ER-8) was also studied (see, for example, Laffitte et al. (2000). Identification of the DNA binding specificity and potential target genes for the farnesoid X-activated receptor. J Biol Chem. 275(14), 10638-47; Kast et al. (2002). Regulation of multidrug resistance-associated protein 2 (ABCC2) by the nuclear receptors pregnane X receptor, farnesoid X-activated receptor, and constitutive androstane receptor. J Biol Chem. 277(4), 2908-15).
In general terms: In a reporter assay the amount or activity of a reporter protein is the signal.

Molecules are shown by their SMILES.

As for `COC(=O)C=Cc1cccc(N(Cc2ccc(C=Cc3ccccc3)cc2)C(=O)C2CCCCC2)c1` [Compound 121], the “concentration at which maximal activity is achieved” value (“concentration” for short) is 1 µM, the “activation of ECRE FXRE reporter” value came out at 100 fold and the “activation of ER-8 FXRE reporter” value was 4 fold.

For `COC(=O)/C=C/c1cccc(N(Cc2ccc(-c3ccc4c(c3)OCO4)cc2)C(=O)C2CCCCC2)c1` [Compound 244], the “concentration” value came out at 1 µM, the “activation of ECRE FXRE reporter” value was 100 fold and the “activation of ER-8 FXRE reporter” value was found to be 4 fold.

As to `COC(=O)/C=C/c1cccc(N(Cc2ccc(-c3ccc(N(C)C)cc3)cc2)C(=O)C2CCCCC2)c1` [Compound 259], the “concentration” value was found to be 1 µM, the “activation of ECRE FXRE reporter” value is given as 100 fold and the “activation of ER-8 FXRE reporter” value came to 4 fold.

(Values after patent publication US7671085B2, “Non-steroidal farnesoid X receptor modulators and methods for the use thereof” (The Salk Institute for Biological Studies, priority 2002, dated 2010).)
